Experimental data taken from patent publication US8088780B2, “5,7-disubstituted thiazolo[4,5-D]pyrimidines for the selective inhibition of chemokine receptors” (AstraZeneca AB, priority 2005, dated 2012).

Key:
CX3CR1 = biological target: T1, CX3CR1 (Homo sapiens, UniProt P49238); experiment: [125I]-fractalkine competition receptor binding assay on membranes of cells expressing hCX3CR1; conditions: HEKS 293 hCX3CR1 membranes
T1 construct: expressed in transfected cells
T1 sequence (P49238 1-355): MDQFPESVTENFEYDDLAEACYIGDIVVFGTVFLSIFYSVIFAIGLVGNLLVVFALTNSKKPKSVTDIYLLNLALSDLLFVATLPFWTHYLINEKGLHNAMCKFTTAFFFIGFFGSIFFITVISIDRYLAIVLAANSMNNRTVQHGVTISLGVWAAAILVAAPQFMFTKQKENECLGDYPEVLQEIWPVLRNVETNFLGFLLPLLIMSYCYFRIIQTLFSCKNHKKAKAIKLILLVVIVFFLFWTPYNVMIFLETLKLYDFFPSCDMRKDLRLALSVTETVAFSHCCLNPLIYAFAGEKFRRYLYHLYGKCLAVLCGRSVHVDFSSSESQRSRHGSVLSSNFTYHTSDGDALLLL
Description: The complete human CX3CR1 cDNA (GenBank accession number U20350) was extracted from human brain mRNA (Superscript, Life Technologies) and ligated into pCR-Blunt II TOPO vector (InVitrogen). The insert corresponding hCX3CR1 was isolated and further subcloned into pcDNA3.1zeo. Plasmid DNA was prepared using Plasmid Midi Kit (Qiagen). […] A stable clone was generated utilizing zeocin (500 μg/mL) and hygromycin (100 μg/mL) selection. For further applications the cells were maintained in Dulbecco's modified Eagle's medium/Ham's nutrient mix F12 (DMEM/F12) containing pyridoxine and supplemented with 10% (v/v) fetal bovine serum, 2 mM L-glutamine, 100 U/ml penicillin and 100 mg/ml streptomycin, 250 μg/mL zeocin and 100 μg/mL hygromycin.
Cells are grown at 37° C. and 5% CO2 and harvested at 60-80% confluence in buffer containing 10 mM Tris-HCl pH 7.4, 5 mM EDTA, 0.1 mg/mL bacitracin. The cells are centrifuged at 300×g for 10 min and the pellet is resuspended in harvesting buffer (10 mM Tris-HCl, pH 7.4, 5 mM ethylenediaminetetra-acetic acid (EDTA) and 0.1 mg/mL bacitracin), pooled and homogenised using a Dounce homogeniser. […]
Ten concentrations (2 points/log unit) of the test compounds were pre-dissolved in DMSO and added to reach a final concentration of 1% (v/v) DMSO. […] Scintillation cocktail was added and radioactivity was determined in a Packard 2500TR liquid scintillation counter.

CXCR2 = biological target: T2, CXCR2 (Homo sapiens, UniProt P25025); experiment: [125I]-hIL-8 competition binding (SPA) on membranes of cells expressing human CXCR2; conditions: receptor binding, [125I]-hIL-8, human CXCR2 membranes
T2 construct: kept under geneticin/G418 selection
T2 sequence (P25025 1-360): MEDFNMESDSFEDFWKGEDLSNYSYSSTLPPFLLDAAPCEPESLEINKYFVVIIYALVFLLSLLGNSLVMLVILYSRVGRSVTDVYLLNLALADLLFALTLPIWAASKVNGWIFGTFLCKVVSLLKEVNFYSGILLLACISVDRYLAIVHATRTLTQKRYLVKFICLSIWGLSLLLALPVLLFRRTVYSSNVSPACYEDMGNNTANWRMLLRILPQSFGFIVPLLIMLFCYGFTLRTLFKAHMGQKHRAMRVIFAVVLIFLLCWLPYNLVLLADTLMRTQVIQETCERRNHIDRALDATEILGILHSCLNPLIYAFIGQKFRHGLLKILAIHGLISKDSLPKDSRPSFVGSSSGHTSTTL
Description: Cells expressing human CXCR2 obtained from AstraZeneca Charnwood are cultured in EMEM containing Glutamax and supplemented with 10% FBS (from PAA, Austria), 1% non-essential amino acids (NEAA), 100 U/mL penicillin and 100 μg/mL streptomycin (PEST) and 500 μg/mL geneticin/G418.
Cells are grown at 37° C. and 5% CO2 and harvested at 60-80% confluence in buffer containing 10 mM Tris-HCl pH 7.4, 5 mM EDTA, 0.1 mg/mL bacitracin. The cells are centrifuged at 300×g for 10 min and the pellet is resuspended in harvesting buffer (10 mM Tris-HCl, pH 7.4, 5 mM ethylenediaminetetra-acetic acid (EDTA) and 0.1 mg/mL bacitracin), pooled and homogenised using a Dounce homogeniser. The homogenate is centrifuged in 48000×g for 10 min and resuspended in harvesting buffer using Ultra-Turrax T8. Membrane aliquots are stored at −80° C.
The non-specific binding is determined in the presence of 500 nM unlabelled hIL-8. The agonist hIL-8 (a concentration-response curve from 3 pM to 30 nM), is used as reference compound at each test occasion. […] The binding reaction is started by addition of 140 μL membrane-SPA preparation, and the samples are incubated in dark at RT for 4 h.

Ki (CX3CR1) [nM] | Ki (CXCR2) [nM] | SMILES
5.8 | 651 | CCC(Sc1nc(N[C@@H](CO)CC(C)C)c2sc(=O)[nH]c2n1)c1ccccc1 (stereo partly shown)
54 | 79 | CC(C)C[C@H](CO)Nc1nc(SCc2ccccc2)nc2[nH]c(=O)sc12 [5-(benzylthio)-7-{[(1R)-1-(hydroxymethyl)-3-methylbutyl]amino}[1,3]thiazolo[4,5-d]pyrimidin-2(3H)-one]
